Consider four molecules from patent US20190083497A1, “MODULATION OF BLOOD BRAIN BARRIER PERMEABILITY” (Cornell University, priority 2008, published 2019).

In test [1] the test system is hCMEC/D3 cells. The experiment in a line: cAMP levels in hCMEC/D3 cells (cAMP Screen kit). Format: cell-based, human. Conditions: 15 minutes treatment. On the procedure:
Adenosine receptor activation regulates cAMP levels in cells. In order to determine the sensitivity of human brain endothelial cells to adenosine receptor induced cAMP regulation, human brain endothelial cells were cultured with adenosine receptor agonists at various concentrations, followed by cAMP level analysis, as shown in FIG. 13.
HCMECD3 cells were grown to confluencey on 24 well plates. As adenosine receptor (“AR”) stimulation is known to influence cAMP levels, cells were treated with or without various concentrations of NECA (general AR agonist), CCPA (A1AR agonist), CGS 21680 (A2AAR agonist), DMSO vehicle, or Forksolin (induces cAMP). After 15 minutes, lysis buffer was added and the cells were frozen at −80 C to stop the reaction. Duplicate samples were used for each condition. cAMP levels were assayed using a cAMP Screen kit (Applied Biosystems, Foster City, Calif.).
(In general: cAMP levels reflect the balance of adenylyl cyclase and phosphodiesterase activity.)

In test [2] the test system is hCMEC/D3 cells. Nature of the test: Jurkat cell migration across hCMEC/D3 transwell in vitro BBB. The note with it: hCMEC/D3 on Transwell; migrated cells counted after 24 hours. In kind it is cell-based, human. The text has this: The blood brain barrier (BBB) is comprised of endothelial cells. During late stages of EAE, lymphocytes are known to cross the BBB. In order to determine if adenosine receptor stimulation of brain endothelial cells could promote lymphocyte migration through the BBB, an in vitro BBB was established. The human brain endothelial cell line hCMEC/D3 (Weksler et al., “Blood-brain Barrier-specific Properties of a Human Adult Brain Endothelial Cell Line,” J. Neurochem. 19(13):1872-4 (2005); Poller et al., “The Human Brain Endothelial Cell Line hCMEC/D3 as a Human Blood-brain Barrier Model for Drug Transport Studies,” J. Neurochem. 107(5):1358-1368 (2008), which are hereby incorporated by reference in their entirety) was obtained, which has been previously described as having BBB properties.
hCMEC/D3 cells were seeded onto Transwell and allowed to grow to confluencey. 2×10^6 Jurkat cells were added to the upper chamber with or without NECA (general adenosine receptor [AR] agonist), CCPA (A1AR agonist), CGS 21680 (A2AAR agonist), or DMSO vehicle. After 24 hours, migrated cells in the lower chamber were counted. Values are relative to the number of cells that migrate through non-HCMECD3 seeded transwells.

In the next test the test system is Z310 cells. The experiment in a line: Jurkat cell migration across Z310 choroid plexus cell transwell. Format: cell-based, murine. Conditions: Z310 cells on Transwell; migrated cells counted after 24 hours; n=1. How it is done:
The choroid plexus (“CP”) controls lymphocyte migration into the CNS. The CP expresses the A1 and A2a adenosine receptors. EAE is prevented in mice when A2a adenosine receptor activity is blocked. EAE is enhanced when the A1 adenosine receptor is missing. It was hypothesized that A2a adenosine receptor activation promotes lymphocyte migration across the CP. Z310 cells are a murine choroid plexus cell line. To test the hypothesis, Transwell membranes were seeded with Z310 cells and allowed to grow to confluencey. 2×10^6 Jurkat cells were added to the upper chamber with or with out NECA (n=1, general AR agonist), CCPA (n=1, A1AR agonist), CGS 21680 (n=1, A2AAR agonist), or DMSO vehicle(n=1). After 24 hours, migrated cells in the lower chamber were counted. Values are relative to the number of cells that migrate through non-Z310 seeded transwells and the results are shown in FIG. 12.

The test system of another test is EAE-induced mice. The experiment in a line: EAE induction and scoring (MOG35-55/CFA + pertussis toxin). In kind it is in vivo, mouse.
In another test the test system is blood brain barrier. Nature of the test: FITC-Dextran extravasation through the brain endothelium. In kind it is in vivo, mouse. The note with it: 30 minutes after IP FITC Dextran. On the procedure:
In order to examine the effects of caffeine, a general adenosine receptor antagonist, on blood brain barrier permeability, mice were fed caffeine for several days and then injected with FITC Dextran, commonly used to assess endothelial permeability.
More particularly, mice were fed 0.6 g/l caffeine (Sigma, St. Louis, Mo.) in water or regular water ad lib for five days. Mice were injected IP with FITC Dextran (10,000 MW, Molecular Probes, Eugene, Oreg.) and after 30 minutes mice were perfused with ice cold PBS via the left ventricle. Brains were removed and snap frozen in OCT (Tissue Tek, Torrance, Calif.) and stored at −80° C. until sectioning. Tissue sections (5 μm) were stained with hematoxylin for light microscopy and with DAPI for a fluorescent counterstain.

Experimental for EAE-induced mice: C57BL/6 and tcrα^−/− mice on the C57BL/6 background were purchased from The Jackson Laboratories. Mice were bred and housed under specific pathogen-free conditions at Cornell University or the University of Turku. For adenosine receptor blockade experiments, mice were given drinking water supplemented with 0.6 g/L of caffeine (Sigma) or 2 mg/kg SCH58261 (1 mg/kg s.c. and 1 mg/kg i.p.) in DMSO (45% vol. in PBS) or 45% DMSO alone starting 1 day before EAE induction and continuing throughout the experiment. All procedures performed on mice were approved by the relevant animal review committee.
EAE was induced by subjecting mice to the myelin oligodendrocyte glycoprotein (“MOG”) EAE-inducing regimen as described in Swanborg, “Experimental Autoimmune Encephalomyelitis in Rodents as a Model for Human Demyelinating Disease,” Clin. Immunol. […] Briefly, a 1:1 emulsion of MOG35-55 peptide (3 mg/ml in PBS) (Invitrogen) and complete Freund's adjuvant (CFA, Sigma) was injected subcutaneously (50 μl) into each flank. Pertussis toxin (PTX, 20 ng) (Biological Laboratories Inc.) was given intravenously (200 μl in PBS) at the time of immunization and again 2 days later. Mice were scored daily for EAE based on disease symptom severity; 0=no disease, 0.5 -1=weak/limp tail, 2=limp tail and partial hind limb paralysis, 3=total hind limb paralysis, 4=both hind limb and fore limb paralysis, 5=death. Mice with a score of 4 were euthanized.
Wild type mice were given 1 mg/kg of SCH58261 in DMSO or DMSO alone both i.p. and s.c. (for a total of 2 mg/kg) 1 day prior to EAE induction and daily for 30 days throughout the course of the experiment (FIG. 7C).

Regarding `OC[C@H]1O[C@@H](n2cnc3c(NC4CCCC4)nc(Cl)nc32)[C@H](O)[C@@H]1O` [CCPA], the cAMP levels result with hCMEC/D3 cells [1] (high levels of the agonist) is given as “increased cAMP levels”. In addition, in the test with hCMEC/D3 cells [2], the “lymphocyte (Jurkat) migration across the in vitro BBB” value is listed as “induced lymphocyte migration at high levels”. Besides, the “lymphocyte (Jurkat) migration across the CP” value with Z310 cells was “induced lymphocyte migration at high levels”.

As for `CCNC(=O)[C@H]1O[C@@H](n2cnc3c(N)nc(NCCc4ccc(CCC(=O)O)cc4)nc32)[C@H](O)[C@@H]1O` [CGS], the cAMP levels entry in the test on hCMEC/D3 cells [1] (various concentrations) was “slightly increased cAMP levels”. The “lymphocyte (Jurkat) migration across the in vitro BBB” value with hCMEC/D3 cells [2] is “promoted lymphocyte migration across the in vitro BBB when used at a lower concentration”. The “lymphocyte (Jurkat) migration across the CP” value in the test on Z310 cells is listed as “promoted lymphocyte migration across the CP”.

`Cn1c(=O)c2c(ncn2C)n(C)c1=O` [caffeine]: the “EAE development (mean EAE score)” value is listed as “did not develop EAE” in the test on EAE-induced mice (cd73-/- mice, caffeine 0.6 g/L in drinking water from 1 day prior to and throughout the EAE experiment); “dramatically protected against EAE development” with EAE-induced mice (wild type mice, caffeine 0.6 g/L in drinking water from 1 day prior to and throughout the EAE experiment). The “FITC-Dextran extravasation across the blood brain barrier (green color of brain sections)” value is “much less intense green color than wild type mice” in the test on blood brain barrier (CD73-/- mice fed 0.6 g/l caffeine in water for five days) and “intensely green background” in the test on blood brain barrier (wild type mice fed 0.6 g/l caffeine in water for five days).

B1: PEG-ADA: Pegylated adenosine deaminase (protein, UniProt P56658 2-363, looked up)
Adenosine deaminase: AQTPAFNKPKVELHVHLDGAIKPETILYYGRKRGIALPADTPEELQNIIGMDKPLSLPEFLAKFDYYMPAIAGCREAVKRIAYEFVEMKAKDGVVYVEVRYSPHLLANSKVEPIPWNQAEGDLTPDEVVSLVNQGLQEGERDFGVKVRSILCCMRHQPSWSSEVVELCKKYREQTVVAIDLAGDETIEGSSLFPGHVKAYAEAVKSGVHRTVHAGEVGSANVVKEAVDTLKTERLGHGYHTLEDATLYNRLRQENMHFEVCPWSSYLTGAWKPDTEHPVVRFKNDQVNYSLNTDDPLIFKSTLDTDYQMTKNEMGFTEEEFKRLNINAAKSSFLPEDEKKELLDLLYKAYGMPSPASAEQCL
modifications: PEG
notes: Pegylated adenosine deaminase
For the molecule B1, the “EAE development (mean EAE score)” value in the test on EAE-induced mice (wild type mice, 15 units/kg body weight i.p. every 4 days, vs PBS vehicle) is recorded as “inhibits development of EAE in wild type mice”.
